As usually defined, the IC50 is the concentration at which inhibition is half-maximal.

A value given as a limit tells only on which side of the number the result lay.

The target of experiment [1] is T1, SIK2 (Homo sapiens, UniProt Q9H0K1). Briefly: SIK2 Enzymatic Assay High Version 2 (High ATP). In kind it is biochemical. The method, boiled down:
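At room temperature, enzyme (6 nM, 2× final) was preincubated with compound for 30 min, then 6 mM ATP and 400 μM HDAC5tide (both 2× final) were added for 2 h. ADP formed was measured by ADP-Glo Max (2 h reagent, 1 h detection) using luminescence.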

The target of experiment [2] is T1, SIK2. Briefly: SIK2 Enzymatic Assay Version 1 (ADP Glo). Particulars: enzyme 0.6 nM, 160 μM ATP and 140 μM HDAC5tide (each 2× final concentration); 30 minutes pre-incubation, 4 hours; ADPGlo luminescence; read-out: SIK2 ADP Glo IC50 (μM) (Test Example 1). In kind it is biochemical. The method in brief:
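Room-temperature ADP-Glo luminescence assay; SIK2 added at 0.6 nM (2× final) and preincubated with compound for 30 min. Reaction stopped with ADP-Glo Reagent for 40 min, then detection reagent for at least 30 min; no-peptide (ATP-only) wells served as negative control.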

T1 sequence (Q9H0K1 whole entry, species assumed): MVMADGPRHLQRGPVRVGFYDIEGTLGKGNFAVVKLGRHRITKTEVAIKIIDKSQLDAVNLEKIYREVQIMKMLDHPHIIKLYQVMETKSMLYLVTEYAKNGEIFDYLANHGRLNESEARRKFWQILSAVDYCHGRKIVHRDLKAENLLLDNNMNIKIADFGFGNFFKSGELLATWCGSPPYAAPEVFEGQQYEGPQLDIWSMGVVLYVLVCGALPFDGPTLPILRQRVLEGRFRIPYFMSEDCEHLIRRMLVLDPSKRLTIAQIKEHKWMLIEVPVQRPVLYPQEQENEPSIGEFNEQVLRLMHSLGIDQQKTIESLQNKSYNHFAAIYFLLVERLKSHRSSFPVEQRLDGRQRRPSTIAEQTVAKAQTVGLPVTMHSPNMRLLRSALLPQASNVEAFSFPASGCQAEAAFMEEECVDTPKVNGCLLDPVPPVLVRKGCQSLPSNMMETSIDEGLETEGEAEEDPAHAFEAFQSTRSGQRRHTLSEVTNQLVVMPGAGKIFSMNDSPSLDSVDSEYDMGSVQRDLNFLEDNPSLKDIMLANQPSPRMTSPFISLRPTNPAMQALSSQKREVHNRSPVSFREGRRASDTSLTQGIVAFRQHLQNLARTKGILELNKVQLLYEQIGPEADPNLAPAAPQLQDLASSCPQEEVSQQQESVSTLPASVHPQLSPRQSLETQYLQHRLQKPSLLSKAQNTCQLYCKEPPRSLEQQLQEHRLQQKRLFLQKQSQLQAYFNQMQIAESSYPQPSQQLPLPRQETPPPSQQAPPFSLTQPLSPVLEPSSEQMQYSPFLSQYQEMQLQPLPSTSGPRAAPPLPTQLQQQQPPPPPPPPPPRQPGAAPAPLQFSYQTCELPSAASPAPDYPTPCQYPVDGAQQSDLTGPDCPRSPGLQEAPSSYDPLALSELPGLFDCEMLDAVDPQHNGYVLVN

Take `Cc1ccnc(Nc2cc3cc(-c4cc(C)ncc4OC[C@@H]4CNCCO4)ccn3n2)c1` [Example 427, 5-[2-methyl-5-[[(2S)-morpholin-2-yl]methoxy]-4-pyridyl]-N-(4-methyl-2-pyridyl)pyrazolo[1,5-a]pyridin-2-amine]: the figures for the IC50 against SIK2 [1] and at SIK2 [2] were 11.5 nM and 0.0012 µM, respectively.
For `N#Cc1cc(-c2ccn3nc(NC(=O)C4CC4)cc3c2)c(OC2C[C@H]3COC[C@@H](C2)N3)cn1` (stereo partly drawn) [Example 92, (3-endo)-N-[5-[2-cyano-5-[[(1R,5S)-3-oxa-9-azabicyclo[3.3.1]nonan-7-yl]oxy]-4-pyridyl]pyrazolo[1,5-a]pyridin-2-yl]cyclopropanecarboxamide], the IC50 was below 0.838 nM against SIK2 [1] and 0.00013 µM at SIK2 [2].
For `CN1[C@@H]2CC[C@H]1C[C@H](COc1cnc(C#N)cc1-c1ccn3nc(NC(=O)C4CC4)cc3c1)C2` [Example 27, N-[5-[2-cyano-5-[[(1S,5R)-8-methyl-8-azabicyclo[3.2.1]octan-3-yl]methoxy]-4-pyridyl]pyrazolo[1,5-a]pyridin-2-yl]cyclopropanecarboxamide], the concentration for half-maximal inhibition (IC50) at SIK2 [1] was determined as 98.7 nM; on SIK2 [2], 0.00474 µM.
Regarding `Cc1cc(-c2ccn3nc(Nc4cc(C)nc(C)n4)cc3c2)c(OC[C@H]2CC[C@@H](O)CO2)cn1` (single isomer, unassigned) [Example 582, (3*R, 6*R)-6-[[4-[2-[(2,6-dimethylpyrimidin-4-yl)amino]pyrazolo[1,5-a]pyridin-5-yl]-6-methyl-3-pyridyl]oxymethyl]tetrahydropyran-3-ol], the IC50 was 62.2 nM at SIK2 [1] and 0.00328 µM at SIK2 [2].
Turning to `COCCN1CC[C@H](Oc2cnc(C#N)cc2-c2ccn3nc(NC(=O)C4CC4)cc3c2)C1` [Example 108, (S)—N-[5-[2-cyano-5-[(3S)-1-(2-methoxyethyl)pyrrolidin-3-yl]oxy-4-pyridyl]pyrazolo[1,5-a]pyridin-2-yl]cyclopropanecarboxamide], the IC50 on SIK2 [1] was 204 nM; on SIK2 [2], 0.00527 µM.
As to `N#Cc1cc(-c2ccn3nc(NC(=O)C4CC4)cc3c2)c(OC2CNC2)cn1` [Example 31, N-[5-[5-(azetidin-3-yloxy)-2-cyano-4-pyridyl]pyrazolo[1,5-a]pyridin-2-yl]cyclopropanecarboxamide], the IC50 at SIK2 [1] was determined as 111 nM; on SIK2 [2], 0.00705 µM.
For `N#Cc1cc(-c2ccn3nc(NC(=O)C4CC4)cc3c2)c(OC2CC2)cn1` [Example 46, N-[5-[2-Cyano-5-(cyclopropoxy)-4-pyridyl]pyrazolo[1,5-a]pyridin-2-yl]cyclopropanecarboxamide], in that order: 185 nM and 0.0141 µM.
The like results for `Cc1cc(-c2ccn3nc(NC(=O)C4CC4)cc3c2)c(OCC2(N)CC(F)(F)C2)cn1` [Example 145, N-[5-[5-[(1-amino-3,3-difluoro-cyclobutyl)methoxy]-2-methyl-4-pyridyl]pyrazolo[1,5-a]pyridin-2-yl]cyclopropanecarboxamide] were, in that order, 16.4 nM and 0.000642 µM.
For `N#Cc1cc(-c2ccn3nc(NC(=O)C4CC4)cc3c2)c(OCC2CCNCC2)cn1` [Example 43, N-[5-[2-cyano-5-(4-piperidylmethoxy)-4-pyridyl]pyrazolo[1,5-a]pyridin-2-yl]cyclopropanecarboxamide], in that order: 10.8 nM and 0.000938 µM.
As to `Cc1cc(-c2cn3cc(NC(=O)C4CC4)nc3cn2)c(OCC(C)(C)C#N)cn1` [Example 508, N-[6-[5-(2-cyano-2-methyl-propoxy)-2-methyl-4-pyridyl]imidazo[1,2-a]pyrazin-2-yl]cyclopropanecarboxamide], the IC50 was found to be 53.7 nM at SIK2 [1] and 0.00366 µM on SIK2 [2].
Regarding `CN1CCC[C@@H](Oc2cnc(C#N)cc2-c2ccn3nc(NC(=O)C4CC4)cc3c2)C1` [Example 88, (R)—N-(5-(2-cyano-5-((1-methylpiperidin-3-yl)oxy)pyridin-4-yl)pyrazolo[1,5-a]pyridin-2-yl)cyclopropanecarboxamide], the IC50 worked out at 51.1 nM on SIK2 [1] and 0.00298 µM at SIK2 [2].
For `Cc1cc(-c2ccn3nc(Nc4cc(C)nc(C)n4)cc3c2)c(OCC(C)(C)O)nn1` [Example 600, 1-[4-[2-[(2,6-dimethylpyrimidin-4-yl)amino]pyrazolo[1,5-a]pyridin-5-yl]-6-methyl-pyridazin-3-yl]oxy-2-methyl-propan-2-ol], in that order: 207 nM and 0.0142 µM.
The like results for `CC(=O)N1CCC(COc2cnc(C#N)cc2-c2ccn3nc(NC(=O)C4CC4)cc3c2)CC1` [Example 60, N-[5-[5-[(1-acetyl-4-piperidyl)methoxy]-2-cyano-4-pyridyl]pyrazolo[1,5-a]pyridin-2-yl]cyclopropanecarboxamide] were, in that order, 98.6 nM and 0.00492 µM.
With `Cc1cc(-c2ccn3nc(Nc4ccccn4)cc3c2)c(OC2CN(C)C2)cn1` [Example 567, 5-[2-methyl-5-(1-methylazetidin-3-yl)oxy-4-pyridyl]-N-(2-pyridyl)pyrazolo[1,5-a]pyridin-2-amine], the half-maximal inhibitory concentration (IC50) was 251 nM against SIK2 [1] and 0.00757 µM on SIK2 [2].
The like results for `Cc1cc(-c2ccn3nc(NC(=O)C4CC4)cc3c2)c(OC[C@H]2CNCCO2)cn1` [Example 166, N-[5-[2-methyl-5-[[(2R)-morpholin-2-yl]methoxy]-4-pyridyl]pyrazolo[1,5-a]pyridin-2-yl]cyclopropanecarboxamide] were, in that order, 15.9 nM and 0.00101 µM.
In the case of `Cc1cc(-c2ccn3nc(NC(=O)C4CC4)cc3c2)c(OCC2(N)CCCC2)cn1` [Example 155, N-[5-[5-[(1-aminocyclopentyl)methoxy]-2-methyl-4-pyridyl]pyrazolo[1,5-a]pyridin-2-yl]cyclopropanecarboxamide], the results for the IC50 at SIK2 [1] and at SIK2 [2] were 15.6 nM and 0.00108 µM, respectively.
On to `N#Cc1cc(-c2ccn3nc(NC(=O)C4CC4)cc3c2)c(OC[C@H]2C[C@@H](NC3CC3)C2)cn1` [Example 597, N-[5-[2-cyano-5-[[3-(cyclopropylamino)cyclobutyl]methoxy]-4-pyridyl]pyrazolo[1,5-a]pyridin-2-yl]cyclopropanecarboxamide], for which the 50% inhibitory concentration (IC50) at SIK2 [1] was determined as 29.9 nM; on SIK2 [2], 0.00192 µM.
Regarding `CCOC(=O)CN[C@H]1C[C@@H](COc2cnc(C#N)cc2-c2ccn3nc(NC(=O)C4CC4)cc3c2)C1` [Example 598, ethyl 2-[[3-[[6-cyano-4-[2-(cyclopropanecarbonylamino)pyrazolo[1,5-a]pyridin-5-yl]-3-pyridyl]oxymethyl]cyclobutyl]amino]acetate], the half-maximal inhibitory concentration (IC50) amounted to 53.5 nM against SIK2 [1] and 0.0041 µM at SIK2 [2].
`Cc1cc(-c2ccn3nc(NC(=O)C4CC4)cc3c2)c(OC[C@@H]2CNC(C)(C)CO2)cn1` [Example 167, N-[5-[5-[[(2S)-5,5-dimethylmorpholin-2-yl]methoxy]-2-methyl-4-pyridyl]pyrazolo[1,5-a]pyridin-2-yl]cyclopropanecarboxamide]: the values for the IC50 against SIK2 [1] and on SIK2 [2] were 8.8 nM and 0.00059 µM, respectively.
For `N#Cc1cc(-c2ccn3nc(NC(=O)C4CC4)cc3c2)c(OC2CN(CC(F)(F)F)C2)cn1` [Example 590, N-[5-[2-cyano-5-[1-(2,2,2-trifluoroethyl)azetidin-3-yl]oxy-4-pyridyl]pyrazolo[1,5-a]pyridin-2-yl]cyclopropanecarboxamide], in that order: 19.5 nM and 0.00124 µM.
The like results for `Cc1cc(-c2ccn3nc(NC(=O)C4CC4)cc3c2)c(O[C@H]2C[C@](C)(N)C2)cn1` [Example 444, N-(5-(5-((1r,3r)-3-amino-3-methylcyclobutoxy)-2-methylpyridin-4-yl)pyrazolo[1,5-a]pyridin-2-yl)cyclopropanecarboxamide] were, in that order, 1.63 nM and 0.000605 µM.
The like results for `N#Cc1cc(-c2ccn3nc(NC(=O)C4CC4)cc3c2)c(O[C@H]2C[C@@H](CO)C2)cn1` [Example 69, N-[5-[2-cyano-5-[3-(hydroxymethyl)cyclobutoxy]-4-pyridyl]pyrazolo[1,5-a]pyridin-2-yl]cyclopropanecarboxamide] were, in that order, 38.3 nM and 0.0028 µM.
With `Cc1cc(-c2ccn3nc(Nc4ccn(C)n4)cc3c2)c(O[C@H]2CC[C@H](O)CC2)cn1` [Example 181, trans-4-[[6-methyl-4-[2-[(1-methylpyrazol-3-yl)amino]pyrazolo[1,5-a]pyridin-5-yl]-3-pyridyl]oxy]cyclohexanol], the IC50 on SIK2 [1] is 32 nM; on SIK2 [2], 0.00236 µM.
As for `CN1C[C@@H]2C[C@H]1C[C@H]2Oc1cnc(C#N)cc1-c1ccn2nc(NC(=O)C3CC3)cc2c1` (single isomer, unassigned) [Example 595, (1*S, 4*S, 5*R)—N-[5-[2-cyano-5-[(2-methyl-2-azabicyclo[2.2.1]heptan-5-yl)oxy]-4-pyridyl]pyrazolo[1,5-a]pyridin-2-yl]cyclopropanecarboxamide], the results for the IC50 on SIK2 [1] and on SIK2 [2] were 18 nM and 0.000791 µM, respectively.
For `Cc1cc(-c2ccn3nc(Nc4ccccn4)cc3c2)c(OC[C@H]2CNCCO2)cn1` [Example 428, 5-[2-methyl-5-[[(2R)-morpholin-2-yl]methoxy]-4-pyridyl]-N-(2-pyridyl)pyrazolo[1,5-a]pyridin-2-amine], in that order: 20.8 nM and 0.00201 µM.
Regarding `N#Cc1cc(-c2ccn3nc(NC(=O)C4CC4)cc3c2)c(O[C@@H]2CCN(Cc3ccccn3)C2)cn1` [Example 112, (R)—N-[5-[2-cyano-5-[(3R)-1-(2-pyridylmethyl)pyrrolidin-3-yl]oxy-4-pyridyl]pyrazolo[1,5-a]pyridin-2-yl]cyclopropanecarboxamide], the IC50 worked out at 81.5 nM against SIK2 [1] and 0.00356 µM on SIK2 [2].
